Reference: patent US7026360B1, “Pharmaceutical compositions containing compounds with activity for the enhancement of absorption of active ingredients” (Inpharma S.A., priority 1999, dated 2006)

Assay: Absorption after 8 hours of topical antiinflammatory formulations with or without 3% PFPE through pig skin, Franz cells (Example C)
Format: in vitro ADME
Conditions: topical formulation; for mcg of permeated active ingredient after 8 hours, Base formula: base formula without PFPE
Method: Apparatus: Franz Cells (manufacturer: Crown Glass Company Inc., New Jersey) Franz diffusion cells are one of the main systems used for the investigation of ex-vivo permeation. This study involved the use of three cells each with a 9 mm diameter donor compartment corresponding with a diffusion area of 64 mm^2. The receptor compartment has a capacity of 4.8 ml. The receptor chamber is heated to 37° C.± 1. The pig skin is placed between the donor compartment and the receptor chamber with the external skin surface facing the upper compartment. The test formulation is placed inside the donor compartment. The receptor chamber is filled with a phosphate buffer solution at pH 7.4 and at intervals between 0.5 and 8 hours, 2 ml of solution are drawn from this chamber. When each sample is taken fresh buffer solution heated to 37° C. is added in order to replenish the initial volume. The samples are then tested using a HPLC method. Each test is repeated three times. Verification of absorption after 8 hours, of topical formulations containing antiinflammatory drugs versus formulations which also contain 3% PFPE, through pig skin, using Franz cells, as described in Example A.

Row | mcg of permeated active ingredient after 8 hours, Base formula + 3% PFPE | mcg of permeated active ingredient after 8 hours, Base formula | SMILES
1 | 7.94 µg | 1.19 µg | CN1C(C(=O)Nc2ccccn2)=C(O)c2ccccc2S1(=O)=O [Piroxicam]
2 | 9.93 µg | 0.53 µg | CCc1cccc2c3c([nH]c12)C(CC)(CC(=O)O)OCC3 (centres unmarked) [Etodolic Acid]
3 | 8.66 µg | 1.82 µg | O=C(O)Cc1ccccc1Nc1c(Cl)cccc1Cl [Diclofenac Sodium]
4 | 6.84 µg | 0.21 µg | CC(C)Cc1ccc(C(C)C(=O)O)cc1 (centres unmarked) [Ibuprofen]
